Source: patent publication US12139481B2, “Compositions comprising macrocycle derivatives incorporating bridged macrocycles and methods of producing and using same” (Southwestern Oklahoma State University, priority 2015, dated 2024)
pIC50: −log10 of the molar value. Like-named read-outs stand apart in the source and are kept apart here.

Legend:
[1] = system: Cryptococcus neoformans ATCC 90113; experiment: Antimicrobial microdilution assay against Cryptococcus neoformans (modified CLSI/NCCLS, optical density); format: cell-based; details: for X more potent than Amphotericin B: C. neoformans, ratio of molar IC50 to Amphotericin B; for C. neoformans IC50 / pIC50: in vitro, C. neoformans ATCC 90113; for pIC50: read-out: C. neoformans IC50 (mol/L)
Experimental: Summary: Various macrocyclic derivatives constructed in accordance with the presently disclosed and/or claimed inventive concept(s) were screened in vitro against Cryptococcus neoformans ATCC 90113 using a microdilution assay. The minimum fungicidal concentration (MFC), the lowest test concentration that kills the organism, was determined in broth media.
Antimicrobial assay: Cryptococcus neoformans ATCC 90113 were obtained from the American Type Culture Collection (Manassas, VA.). The susceptibility testing was performed using a modified version of the CLSI (formerly NCCLS) methods (see below), and optical density was used to monitor growth. Samples were serially diluted in 20% DMSO/saline and transferred in duplicate to 96-well flat bottom microplates. Microbial inocula were prepared by correcting the OD630 of cell/spore suspensions in incubation broth RPMI at pH 6.0 to afford final desired target inocula. Amphotericin B (“AMB;” ICN Biomedicals, OH) was used as drug control. The organism concentration was read at 630 nm using the Biotek Powerwave XS plate reader (Bio-Tek instruments, VT) prior to and after incubation. Minimum fungicidal concentrations were determined by removing 5 μL from each clear well, transferring to agar, and incubating until growth was seen. The MFC/MBC is defined as the lowest test concentration that kids the organism (allows no growth on agar).
References for NCCLS methods referenced above: 1 NCCLS. Reference method for broth dilution antifungal susceptibility testing of yeasts, Vol. 22. Approved standard, 2nd ed. Wayne: National Committee for Clinical Laboratory Standards; 2002: 1-51. 2 NCCLS. Reference method for broth dilution antifungal susceptibility testing of conidium forming filamentous fungi, Vol. 18. Proposed standard M38-P. Wayne: National Committee for Clinical Laboratory Standards; 1998: 1-39. 3 NCCLS. Methods for dilution antimicrobial susceptibility tests for bacteria that grow aerobically, Vol. 20. NCCLS Document M7-A5. Wayne: National Committee for Clinical Laboratory Standards; 2000: 1-58.
The term “IC50” as used herein will be understood to refer to a test concentration in mol/L that affords 50% inhibition of the microbe relative to negative and positive controls. […] The abbreviation “MFC” as used herein will be understood to refer to a minimum fungicidal concentration, or the lowest test concentration in mol/L that kills the organism. All IC50s are calculated using the XLfit® fit curve fitting software (ID Business Solutions Ltd, Guildford, Surrey, UK).
General Experimental Procedures. All organisms were obtained from the American Type Culture Collection (Manassas, VA) and include the fungi Candida albicans ATCC 90028, C. glabrata ATCC 90030, C. krusei ATCC 6258, and Cryptococcus neoformans ATCC 90113, and the bacteria Staphylococcus aureus ATCC 29213 and methicillin-resistant S. aureus ATCC 33591 (MRS). All organisms were tested using modified versions of the CLSI (formerly NCCLS) methods. For all organisms, optical density was used to monitor growth (NCCLS, Reference Method for Broth Dilution Antifungal Susceptibility Testing of Yeasts; Approved Standard M27-A2. National Committee on Clinical Laboratory Standards, 2002 22 (15); and NCCLS, Methods for Dilution Antimicrobial Susceptibility Tests for Bacteria that Grow Aerobically; Approved Standard, Seventh Edition M7-A7. National Committee on Clinical Laboratory Standards, 2006. 26(2)).
Samples (dissolved in DMSO) were serially-diluted in 20% DMSO/saline and transferred (10 μL) in duplicate to 96 well flat bottom microplates.

[2] = system: L. donovani promastigotes; experiment: Antileishmanial Alamar Blue assay on promastigotes; format: cell-based, Leishmania donovani; details: for X more potent than Pentamidine: L. donovani, ratio of molar IC50 to Pentamidine
Experimental: Methods: The compounds were screened in vitro against the promastigote forms of the leishmania parasites employing the Alamar Blue assay as discussed below.
Antileishmanial activity of the compounds was tested in vitro against a culture of L. donovani promastigotes, grown in RPMI 1640 medium supplemented with 10% fetal calf serum (FCS, Gibco Chem. Co., Grand Island, NY) at 26° C. A 3-day-old culture was diluted to 5×10^5 promastigotes/mL. Drug dilutions (50-3.1 μg/mL) were prepared directly in cell suspension in 96-well plates. Plates were incubated at 26° C. for 48 hours, and growth of leishmania promastigotes was determined by Alamar Blue assay. Standard fluorescence was measured on a FLUOstar® Galaxy plate reader (BMG Lab Technologies, Ortenberg, Germany) at an excitation wavelength of 544 nm and emission wavelength of 590 nm. Pentamidine and amphotericin B were used as the standard antileishmanial agents. Percent growth was calculated and plotted versus test concentration for computing the IC50 values.

[3] = promastigotes, 48 hours, Alamar Blue
[4] = promastigotes, 48 hours, Alamar Blue, read-out: L. donavani IC50

Compound | X more potent than Amphotericin B [1] | C. neoformans IC50 [1] [µg/mL] | pIC50 [1] | X more potent than Pentamidine [2] | L. donovani IC50 [2, 3] [µg/mL] | pIC50 [2, 4] | pIC50 ([2]; Leishmania donovani, 48 h, read-out: L. donavani IC50 (mol/L)) | IC50 ([2]; Leishmania donovani, promastigotes, 48 hours, Alamar Blue, read-out: L. donovani IC50) [µg/mL] | pIC50 ([2]; Leishmania donovani, read-out: IC50 against L. donovani)
[Cl][Mn-2]([Cl])([Cl])[Cl].[Cl][Mn-2]([Cl])([Cl])[Cl].[Mn+2].[Mn+2].c1cc(CN2CCCN3CCNCCCN(CC3)CC2)ccc1CN1CCCN2CCNCCCN(CC2)CC1 [TJH412, [Mn2(H2-p-CB-cyclams)][MnCl4]2] | 0.13 | 1.990 | 5.73 | 0.17 | 33.37 | 4.50 | – | – | –
c1cc(CN2CCCN3CCNCCCN(CC3)CC2)ccc1CN1CCCN2CCNCCCN(CC2)CC1 [JGL44, p-CB-H2Bcyclams] | 0.73 | 0.180 | 6.49 | 0.11 | 28.08 | 4.30 | – | – | –
Fe(Bn2Cyclam)Cl2•0.5 H2O [TJH398A] | – | – | – | 1.20 | 2.28 | 5.35 | – | – | –
N=C(N)c1ccc(OCCCCCOc2ccc(C(=N)N)cc2)cc1 [PENT, Pentamidine, reference compound] | – | – | – | 1.00 | – | – | 5.27 | 1.81 | 5.27
Clc1cc(CN2CCCNCCN(Cc3cc(Cl)nc(Cl)c3)CCCNCC2)cc(Cl)n1 [DJD29, (DCP)2Cyclam] | – | – | – | 0.28 | 9.76 | 4.73 | – | – | –
CC(=O)[O-].CN1CCN2CCN(CC1)CCN(Cc1ccccc1)CC2.F[P-](F)(F)(F)(F)F.F[P-](F)(F)(F)(F)F.[Co+3] [TRH15, [Co(Bn1Me1Bcyclen)(OAc)][PF6]2] | 0.21 | ≤ 0.800 | 5.95 | – | – | – | – | – | –
Clc1ccc2c(N3CCNCCN(c4ccnc5cc(Cl)ccc45)CCNCC3)ccnc2c1.[Cl-].[Cl-].[Mn+2] [K-PAA2-0004-P8-TJH410, {[Mn(4,10-bis(7-chloroquinoline)cyclen]Cl2}] | 0.04 | 4.123 | 5.18 | – | – | – | – | – | –
[Co2(p-CB-Homocyclens)(OAc)2][PF6]2 [TJH379A] | 0.32 | ≤ 0.800 | 6.13 | – | – | – | – | – | –
[Cu2(p-SB-cyclam-cyclen)(OAc)1.2][PF6]2.8 [CMB018] | 0.09 | 3.020 | 5.57 | – | – | – | – | – | –
CC(=O)[O-].CC(=O)[O-].F[P-](F)(F)(F)(F)F.F[P-](F)(F)(F)(F)F.[Ni+2].[Ni+2].c1cc(CN2CCCN3CCNCCCN(CC3)CC2)ccc1CN1CCCN2CCNCCCN(CC2)CC1 [TJH415B, [Ni2(H2-p-CB-cyclams)(OAc)2][PF6]2] | 0.30 | 0.850 | 6.10 | – | – | – | – | – | –
[Cu(Bn2PBCyclen)(C2H3O2)0.4][PF6]1.6 [AW040] | 0.02 | 7.050 | 5.00 | – | – | – | – | – | –
F[P-](F)(F)(F)(F)F.F[P-](F)(F)(F)(F)F.F[P-](F)(F)(F)(F)F.F[P-](F)(F)(F)(F)F.O.O.[Cu+2].[Cu+2].c1cc(CN2CCNCCCN3CCN(CC3)CC2)ccc1CN1CCNCCCN2CCN(CC2)CC1 [OB49, [Cu2(p-SB-Homocyclens)][PF6]4•2H2O] | 0.38 | ≤ 0.800 | 6.20 | – | – | – | – | – | –
[Co(Me1Pic1-CB-cyclen)](PF6)3 [KRW48] | 0.18 | 1.090 | 5.89 | – | – | – | – | – | –
CC(=O)[O-].CC(=O)[O-].F[P-](F)(F)(F)(F)F.F[P-](F)(F)(F)(F)F.O.O.[Zn+2].[Zn+2].c1cc(CN2CCNCCN3CCN(CC3)CC2)cc(CN2CCNCCN3CCN(CC3)CC2)c1 [OB37, [Zn2(m-SB-Cyclens)(OAc)2][PF6]2•2H2O] | 0.32 | ≤ 0.800 | – | – | – | – | – | – | –
Ni(Py-SB-Cyclam)Cl2•3H2O [ADS20] | 0.01 | 18.590 | 4.43 | – | – | – | – | – | –
C1CNCCN2CCCNCCN(C1)CCC2.CC(=O)[O-].F[P-](F)(F)(F)(F)F.F[P-](F)(F)(F)(F)F.F[P-](F)(F)(F)(F)F.[NH4+].[NH4+].[Ni+2] [SLK39B, [Ni(H2PBCyclam)(OAc)]PF6•2NH4PF6] | 0.03 | 5.890 | 5.15 | – | – | – | – | – | –
C1CNCCN2CCCNCCN(C1)CCC2.CC(=O)[O-].F[P-](F)(F)(F)(F)F.F[P-](F)(F)(F)(F)F.F[P-](F)(F)(F)(F)F.[Cu+2].[NH4+].[NH4+] [SLK40B, [Cu(H2PBCyclam)(OAc)]PF6•2NH4PF6] | 0.03 | 6.930 | 5.08 | – | – | – | – | – | –
[Zn2(m-SB-cyclam-cyclen)(OAc)2][PF6]2•3.3H2O [CMB035] | 0.33 | ≤ 0.800 | 6.15 | – | – | – | – | – | –
O=[N+]([O-])c1ccc(Cn2c(CN3CCNCCN4CCN(CC4)CC3)nc3ccccc32)cc1 [SJA229, SB-BINO2-cyclen] | 0.06 | 1.890 | 5.39 | – | – | – | – | – | –
[Co(Me1Py1-CB-Cyclam)Cl]PF6 [DGJ012] | 0.03 | 4.730 | 5.08 | – | – | – | – | – | –
[Zn(Me1-SB-Cyclam)(C2H3O2)]PF6 [DLM32] | 0.01 | 17.280 | 4.47 | – | – | – | – | – | –
CC(=O)[O-].CC(=O)[O-].O=[N+]([O-])c1ccc(Cn2c(CN3CCNCCN4CCN(CC4)CC3)nc3ccccc32)cc1.[Ni+2] [SJA232, [Ni(SB-BINO2-cyclen)(OAc)2]] | 0.02 | 5.070 | 4.96 | – | – | – | – | – | –
CN1CCCN2CCN(C)CCN(CC1)CC2.F[P-](F)(F)(F)(F)F.[Cl-].[Cl-].[Co+3] [DGJ031, [Co(B13N4)Cl2]PF6] | 0.02 | 4.980 | 5.01 | – | – | – | – | – | –
CN1CCN2CCN(CC1)CCN(Cc1nc3ccccc3[nH]1)CC2.[Cl-].[Cl-].[Mn+2] [SJA227, [Mn(CB-BI-cyclen)(Cl)2]] | 0.04 | 1.930 | 5.25 | – | – | – | – | – | –
[Mn(Py-SB-Cyclam)Cl]PF6•3H2O [ADS17] | 0.03 | 5.220 | 5.07 | – | – | – | – | – | –
C1CNCCN2CCCNCCN(C1)CCC2.O.[Cl-].[Cl-].[Cl-].[Fe+3] [SLK36, Fe(H2PBCyclam)Cl3•H2O] | 0.03 | 3.330 | 5.10 | – | – | – | – | – | –
